According to article PMC7145299, “New Cysteine Protease Inhibitors: Electrophilic (Het)arenes and Unexpected Prodrug Identification for the Trypanosoma Protease Rhodesain” (Molecules, 2020):
Read-outs that look alike come from different tables or passages of the source.

How the values were obtained:
cathepsin L [1] = biological target: T1, cathepsin L (Homo sapiens, UniProt P07711); test: biochemical; conditions: for inhibition at 20 µM: read-out: % inhibition of Cath. L
Procedure: (§1) Inhibition of cathepsins and rhodesain was tested with the fluorogenic substrate Cbz-Phe-Arg-AMC as described previously [19]. First, a screening at 20 µM inhibitor concentration was performed. For compounds showing >60% inhibition at this concentration, the IC50 values were determined. […] The respective Ki values (Table 1) were determined from plots of the IC50 values against substrate concentration according to the Cheng–Prusoff relationship [46].
(§2) Enzyme assays / Rhodesain and Cathepsins
(§3) The assays were performe d as described previously [7,8] by incubating rhodesain in 190 μL
(§4) assay buffer (50 mM sodium acetate pH 5.5, 5 mM EDTA, 200 mM NaCl, 0.005% Brij) with 5 μL of an
(§5) inhibitor DMSO stoc k solution of a given concentrati on for 10 min at room te mperature. The reaction
(§6) was started by adding 5 μ L of 400 μM Z-Phe-Arg-7-amino-4-methylc umari n (Z-Phe-Arg-AMC) in
(§7) DMSO. The released AMC was excited at 380 nm and the upc oming fl uoresce nce measured at 460
(§8) nm at 25 °C over time. The final substrate concentration was 10 μM.
(§9) Quenching of the fluoresc ence of the released AMC by the inhibitors was acc ounted for as
described previously [9].
(§10) The cathepsin L assays wer e performed accordi ngly in 50 mM Tris buffer (pH 6.5, 5 mM EDTA,
(§11) 200 mM NaCl, 0.005% Brij) and 250 μM Z-Phe-Arg-AMC concentration (final conce ntration: 6.25 μM).
(§12) The cathepsin B (Calbioche m) assays were performed accordingly in 50 mM Tris buffer pH 6.5,
(§13) 5 mM EDTA, 200 mM NaCl and 0.005% Brij leading to final enzyme and substrate concentrati ons of
(§14) Final inhibitor c once ntrations ranged from 0.001 μM to 100.0 μM.

cathepsin B = cathepsin B (Homo sapiens, UniProt P07858); test: biochemical; conditions: for inhibition at 20 µM: read-out: % inhibition of Cath. B
Procedure: as §1, §2, §3, §4, §5, §6, §7, §8, §9
described previously [9].
as §10, §11, §12, §13, §14

[2] = biological target: T2, serine protease of the Dengue virus (DENV PR) (Dengue virus type 2, UniProt P29990); test: Dengue virus protease inhibition assay; type: biochemical; conditions: 20 µM inhibitor
T2 construct: the serine protease of the Dengue virus (DENV PR)

[3] = test system: T. b. brucei 449 cell line; test: T. b. brucei cell survival assay (ATPlite); type: cell-based; conditions: Trypanosoma brucei, after 24 h, read-out: EC50 anti-trypanosomal activity
Procedure: Ester 7 and acid 8 were tested for their anti-trypanosomal activity against T. brucei brucei using the ATPlite assay according to previously published procedures. […] The differences in anti-protease and anti-trypanosomal activity between the lipophilic ester 7 and the more hydrophilic acid 8 might be due to different cell permeabilities of the compounds. […]
NaCl) followed by 45 min incubation at room te mpe rature. […] 5 μL of […] Z-Phe-Arg-AMC were added to 195 μL of rhodesain-8 or rhodesai n-DMSO stock solutions and the upcoming fluorescence was measured over time to assure complete inhibition (see Figure SI1)). […]
For the dilution assay, […] of the rhodesain-8 stock solution were diluted with […] 50 mM sodiu m acetate buffer (pH 5.5 with 5 mM EDTA, 200 mM NaCl 5 mM DTT) and the recovery of the enzymatic activity was measured immediately after adding […] of 400 μM Z-Phe-Arg-AMC (see […]
90 μL HMI-9 medium containing 2500 cells/mL were distributed in 96-well microplate s (PerkinEl mer). […] 50 μL of ATPlite 1 step solution (PerkinEl mer) was added to each well of the microplate and luminesce nce measured at room temperature with an Infinite® M200 PRO plate reader (Tecan Trading AG). The measured values were plotted against the c omp ound concentrati ons top yie ld the dose-resp onse c urve. The EC50 values were calculated using GraF it version 5.013 (Erithacus Software Ltd.). […]

S. aureus sortase A = biological target: T3, S. aureus sortase A (Staphylococcus aureus, UniProt Q2FV99); test: biochemical; conditions: 20 µM final inhibitor concentration
T3 construct: made in house

rhodesain [4] = biological target: T4, rhodesain (Trypanosoma brucei rhodesiense, UniProt Q95PM0, S297A); test: Rhodesain inhibition, fluorogenic substrate Cbz-Phe-Arg-AMC; type: biochemical; conditions: for % inhibition of Rhod.: 20 µM inhibitor
[5] = type: physicochemical; conditions: 800 µM in rhodesain sample buffer pH 5.5 with 10% d6-DMSO
Procedure: The interaction of the fluorinated inhibitors 7 and 8 with rhodesain was probed via ^19F NMR spectroscopy (Figure 3). […] To probe the rhodesain-mediated turnover of 7 into 8, we recorded time-resolved ^19F NMR spectra of 7 (800 µM) in the presence of 4 µM rhodesain (Figure 3b). During the measurement, the solution became clear and a dramatic difference in the chemical shift occurred to values identical to those observed for compound 8. The reaction was subsequently analyzed by MS (see Section 2.4), which confirmed the formation of the free acid 8.
Table S1 (DP4+)-results for product 12.
Lyophilized rhode sain was reconstituted at 4 mg/mL in 50 mM Na acetate, pH 5.5, 200 mM NaCl, 5 mM EDTA. […] After the addition of the inhibit ors at a final concentrati on of 0.1 mM, samples were analyzed by LC-MS using a nanoAcquity UP LC system (Waters Corporation) coupled to a nano-ESI-Q-TOF mass spectrome ter (Synapt G2-S HDMS, Waters Corporation). […]
For 19F NMR, c ompounds 7 (800 μM) or 8 (400 μM) were dissolved in rhodesain sample buffer (50 mM NaAcetate, pH 5.5, 200 mM NaCl, 5 mM Na-EDTA, 1 mM TCEP) with 10% d6-DMSO from a 40 mM inhibitor stock in d6-DMSO. Spectra were recorded at 303 K on a Bruker Avance 3 600 MHz spectrome ter with a Prodigy TCI cryoprobe (Bruker, Karlsruhe). Because 1H and 19F are measured in the same coil, protons wer e not decoupled during 19F acquisition. […]

[6] = type: physicochemical; conditions: assay buffer pH 5.5 without protease, 24 h, room temperature
cathepsin L [7] = biological target: T1, cathepsin L; conditions: IC50 increases linearly with substrate concentration
Procedure: as §1, §2, §3, §4, §5, §6, §7, §8, §9
described previously [9].
as §10, §11, §12, §13, §14

rhodesain [8] = biological target: T4, rhodesain; test: Hydrolysis assay of ester 7 with rhodesain, LC-MS; type: biochemical; conditions: room temperature, 24 h

T2 sequence (P29990 1394-1440): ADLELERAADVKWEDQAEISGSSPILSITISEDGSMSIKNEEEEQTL
T2 sequence (P29990 1476-1653): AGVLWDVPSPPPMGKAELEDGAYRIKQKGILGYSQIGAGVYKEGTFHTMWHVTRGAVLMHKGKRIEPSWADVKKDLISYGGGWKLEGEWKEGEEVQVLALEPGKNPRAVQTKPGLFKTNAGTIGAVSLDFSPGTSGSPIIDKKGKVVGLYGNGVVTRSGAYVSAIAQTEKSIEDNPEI
T1 sequence (P07711 114-333): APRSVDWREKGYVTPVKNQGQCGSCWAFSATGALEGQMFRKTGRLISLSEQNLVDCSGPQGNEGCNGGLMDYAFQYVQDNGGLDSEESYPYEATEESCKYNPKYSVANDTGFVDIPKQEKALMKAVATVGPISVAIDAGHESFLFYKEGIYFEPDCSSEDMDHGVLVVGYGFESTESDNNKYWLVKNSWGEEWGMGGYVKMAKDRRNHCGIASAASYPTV
T4 sequence (Q95PM0 126-342 S297A): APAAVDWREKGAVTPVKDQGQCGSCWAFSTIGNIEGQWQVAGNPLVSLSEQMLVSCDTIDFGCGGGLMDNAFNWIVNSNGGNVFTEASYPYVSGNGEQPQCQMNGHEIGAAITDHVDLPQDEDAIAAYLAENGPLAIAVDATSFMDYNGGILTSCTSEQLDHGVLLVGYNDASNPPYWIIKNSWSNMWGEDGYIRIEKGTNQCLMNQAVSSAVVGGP
T3 sequence (Q2FV99 whole entry): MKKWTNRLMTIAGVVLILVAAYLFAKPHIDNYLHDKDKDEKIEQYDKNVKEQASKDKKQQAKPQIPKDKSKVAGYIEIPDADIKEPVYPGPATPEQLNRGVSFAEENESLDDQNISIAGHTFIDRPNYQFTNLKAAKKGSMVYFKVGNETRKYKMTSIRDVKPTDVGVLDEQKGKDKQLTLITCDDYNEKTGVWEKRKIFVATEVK

CC(C)C[C@H](NC(=O)[C@H](Cc1ccccc1)NC(=O)c1cc([N+](=O)[O-])ccc1F)C(=O)OCc1ccccc1 [Compound 6]
inhibition at 20 µM (cathepsin L [1]): 50%
inhibition at 20 µM (cathepsin B): 21%
inhibition at 20 µM [2]: 12%

CC(C)C[C@H](NC(=O)[C@H](Cc1ccccc1)Nc1cc([N+](=O)[O-])c([N+](=O)[O-])cc1F)C(=O)OCc1ccccc1 [Compound 7]
EC50 [3]: 0.0953 µM
Ki (cathepsin L [1]): 1.6 µM
inhibition at 20 µM (cathepsin L [1]): 98%
inhibition at 20 µM (S. aureus sortase A): 16%
% inhibition of Rhod. (rhodesain [4]): 45/nd %
Ki (cathepsin B): 4.4 µM
inhibition at 20 µM (cathepsin B): 63%
solubility [5]: poor solubility
hydrolysis of ester by reaction buffer [6]: not hydrolyzed
inhibition mode from IC50 at different substrate concentrations (cathepsin L [7]): competitive inhibition mode
inhibition at 20 µM [2]: 31%
conversion of ester into free acid by catalytically active rhodesain (rhodesain [8]): complete conversion

CC(C)C[C@H](NC(=O)[C@H](Cc1ccccc1)NC(=O)c1ccc(Cl)nc1Cl)C(=O)OCc1ccccc1 [Compound 1]
inhibition at 20 µM (cathepsin L [1]): 57%
inhibition at 20 µM (cathepsin B): 16%
inhibition at 20 µM [2]: 19%

CC(C)C[C@H](NC(=O)[C@H](Cc1ccccc1)NC(=O)c1cccc([N+](=O)[O-])c1F)C(=O)OCc1ccccc1 [Compound 4]
Ki (cathepsin L [1]): 0.66 µM
inhibition at 20 µM (cathepsin L [1]): 99%
inhibition at 20 µM (S. aureus sortase A): 11%
% inhibition of Rhod. (rhodesain [4]): 75%
Ki (rhodesain [4]; read-out: Ki Rhod.): 0.29 µM
inhibition at 20 µM (cathepsin B): 20%
inhibition mode from IC50 at different substrate concentrations (cathepsin L [7]): competitive inhibition
inhibition at 20 µM [2]: 10%

CC(C)C[C@H](NC(=O)[C@H](Cc1ccccc1)Nc1cc(F)c([N+](=O)[O-])cc1[N+](=O)[O-])C(=O)OCc1ccccc1 [Compound 3]
inhibition at 20 µM (cathepsin L [1]): 60%
inhibition at 20 µM (cathepsin B): 22%
inhibition at 20 µM [2]: 28%

CC(C)C[C@H](NC(=O)[C@H](Cc1ccccc1)Nc1cc([N+](=O)[O-])c([N+](=O)[O-])cc1F)C(=O)O [Compound 8]
EC50 [3]: 18.5 µM
Ki (cathepsin L [1]): 3 ± 0.9 µM
inhibition at 20 µM (S. aureus sortase A): 0%
Ki (rhodesain [4]): 0.004 µM
reversibility of rhodesain inhibition (rhodesain [4]; IC50 at 10 min vs 45 min preincubation, dilution assay): reversible inhibition
Ki (cathepsin B): 1.5 ± 0.29 µM

CC(C)C[C@H](NC(=O)[C@H](Cc1ccccc1)NC(=O)Nc1ccc(F)c([N+](=O)[O-])c1)C(=O)OCc1ccccc1 [Compound 5]
inhibition at 20 µM (cathepsin L [1]): 8%
inhibition at 20 µM (cathepsin B): 10%
inhibition at 20 µM [2]: 11%

CC(C)C[C@H](NC(=O)[C@H](Cc1ccccc1)Nc1cc(Cl)ncn1)C(=O)OCc1ccccc1 [Compound 2]
inhibition at 20 µM (cathepsin L [1]): 56%
inhibition at 20 µM (cathepsin B): 33%
inhibition at 20 µM [2]: 24%
